The text below walks through data of DBAASP.

Values after ≈ are worked out from the molar mass of the structure shown. Values joined by “and” are separate entries in the source; they are usually repeats but may differ in a detail not shown here. Equal entries are not always repeated.

Common to all, as to assay: ≥ marks a high value that may be exact or a test limit, other limits are often not marked, values filed in µg/mL are converted to µM
The test system of test [1] is Bacillus sp. DM-1.
Test [2] relates to Beauveria sp.
For test [3], the system named is Bacillus subtilis CGMCC 1.2428.
In test [4] the test system is Micrococcus luteus CGMCC 1.0290.
The subject of test [5] is Bacillus megaterium CGMCC 1.0459.
The test system of test [6] is Saccharomyces cerevisiae.
Test [7] concerns Escherichia coli BL21AI.
The test system of test [8] is Micrococcus luteus ATCC 10240.
Test [9] relates to Escherichia coli KCTC 1682.
In test [10] the test system is Staphylococcus epidermidis KCTC 1917.
For test [11], the system named is Bacillus subtilis KCTC 3068.
For test [12], the system named is Staphylococcus aureus KCTC 1621.
For test [13], the system named is Candida albicans KCTC 7965.
Test [14] deals with Salmonella typhimurium KCTC 1926.
The test system of test [15] is Pseudomonas aeruginosa KCTC 1637.
The test system of test [16] is Saccharomyces cerevisiae KCTC 7296.
Test [17] deals with Candida albicans TIMM 1768.
The test system of test [18] is Trichosporon beigelii KCTC 7707.
For test [19], the system named is Bacillus subtilis KCTC 1918.
Test [20] relates to Staphylococcus epidermidis KCTC 3096.
In test [21] the test system is Escherichia coli DH5alpha.
Test [22] has as its system Penicillium digitatum PHI-26.
In test [23] the test system is Saccharomyces cerevisiae FY1679.
For test [24], the system named is Candida albicans.
The subject of test [25] is Bacillus megaterium ATCC 19213.
Test [26] concerns Staphylococcus epidermidis NBRC 12933.
Test [27] relates to Bacillus subtilis NBRC 3513.
Test [28] relates to Staphylococcus aureus NBRC 12732.

For the compound `CC(C)[C@H](NC(=O)[C@H](CS)NC(=O)[C@H](CC(=O)O)NC(=O)CNC(=O)[C@H](CC(N)=O)NC(=O)[C@H](CCCCN)NC(=O)[C@H](CS)NC(=O)[C@H](CCCCN)NC(=O)CNC(=O)CN)C(=O)N[C@@H](CS)C(=O)N[C@@H](CCCN=C(N)N)C(N)=O` [GGKCKNGDCVCR], the MIC (usually the lowest concentration found to suppress growth) in [1] was not below 33.8 µM; in test [2], 17.7 µM (≈ 21.9 µg/mL); in test [3], 10.8 µM (≈ 13.3 µg/mL); in [4], 26 µM (≈ 32.2 µg/mL); in [5], 8.93 µM (≈ 11.1 µg/mL); in test [6], not below 52 µM.
As to `CC[C@H](C)[C@H](NC(=O)[C@@H]1CCCN1C(=O)[C@H](CCCN=C(N)N)NC(=O)[C@@H]1CCCN1C(=O)[C@H](Cc1cnc[nH]1)NC(=O)[C@H](CO)NC(=O)[C@@H](NC(=O)[C@@H]1CCCN1C(=O)[C@H](CCCN=C(N)N)NC(=O)[C@@H]1CCCN1C(=O)[C@H](CO)NC(=O)[C@H](Cc1ccc(O)cc1)NC(=O)[C@@H]1CCCN1C(=O)[C@H](CCCN=C(N)N)NC(=O)[C@@H]1CCCN1C(=O)[C@H](CCCCN)NC(=O)CN)[C@@H](C)O)C(=O)N[C@@H](CCCN=C(N)N)C(=O)N[C@H](C(N)=O)C(C)C` [GKPRPYSPRPTSHPRPIRV], the MIC is 29.1 µM (≈ 64 µg/mL) in [7] and 0.455 µM (≈ 0.999 µg/mL) in test [8].
As for `CC(C)C[C@H](NC(=O)[C@H](CC(C)C)NC(=O)[C@H](CCCCN)NC(=O)[C@H](CCCCN)NC(=O)[C@H](CC(C)C)NC(=O)[C@H](CC(C)C)NC(=O)[C@H](CCCCN)NC(=O)[C@H](CC(C)C)NC(=O)[C@H](Cc1c[nH]c2ccccc12)NC(=O)[C@H](CCCCN)NC(=O)[C@H](CCCCN)NC(=O)[C@H](CC(C)C)NC(=O)[C@H](CC(C)C)NC(=O)[C@H](CCCCN)NC(=O)[C@H](CCCCN)NC(=O)[C@H](CC(C)C)NC(=O)[C@@H](N)CCCCN)C(=O)N[C@@H](CCCCN)C(N)=O` [KLKKLLKKWLKLLKKLLK], the MIC in test [9] is 8 µM (≈ 18.1 µg/mL); in test [10], 8 µM (≈ 18.1 µg/mL); in [11], 4 µM (≈ 9.05 µg/mL); in test [12], 8 µM (≈ 18.1 µg/mL); in [13], 11.3 µM (≈ 25.6 µg/mL); in test [14], 4 µM (≈ 9.05 µg/mL). This compound displayed an MIC in [15] of 8 µM (≈ 18.1 µg/mL).
Consider `CC(C)C[C@H](NC(=O)[C@H](CCCCN)NC(=O)[C@H](CCCCN)NC(=O)[C@H](CC(C)C)NC(=O)[C@H](CC(C)C)NC(=O)[C@H](CCCCN)NC(=O)[C@H](CCCCN)NC(=O)[C@H](CC(C)C)NC(=O)[C@H](CC(C)C)NC(=O)[C@@H]1CCCN1C(=O)[C@@H](N)CCCCN)C(N)=O` [KPLLKKLLKKL], for which the MIC in test [16] was determined as 12.5 µM (≈ 16.5 µg/mL); in test [17] it was 25 µM (≈ 33 µg/mL); in [18], 6.3 µM (≈ 8.32 µg/mL); in test [19] it was 6.3 µM (≈ 8.32 µg/mL); in test [14], 0.4 µM (≈ 0.528 µg/mL); in [20], 6.3 µM (≈ 8.32 µg/mL). The same compound showed a minimal inhibitory concentration (MIC) in test [15] of 3.1 µM (≈ 4.09 µg/mL).
For the compound `CC(=O)N[C@@H](CCCN=C(N)N)C(=O)N[C@@H](CCCCN)C(=O)N[C@@H](CCCCN)C(=O)N[C@@H](Cc1c[nH]c2ccccc12)C(=O)N[C@@H](Cc1ccccc1)C(=O)N[C@@H](Cc1c[nH]c2ccccc12)C(N)=O` [RKKWFW], the minimum inhibitory concentration (MIC) in test [21] is not below 32 µM; in test [22] it was 4 µM and 6 µM; in [23], not below 32 µM; in [24] it was 132 µM (≈ 130 µg/mL).
Take `CC(C)C[C@H](NC(=O)[C@H](CCCCN)NC(=O)[C@H](CC(C)C)NC(=O)[C@H](CC(C)C)NC(=O)[C@H](Cc1c[nH]c2ccccc12)NC(=O)[C@@H](N)CCCN=C(N)N)C(=O)NCC(=O)N[C@@H](Cc1cnc[nH]1)C(=O)N[C@@H](Cc1cnc[nH]1)C(=O)NCC(=O)N[C@@H](CCCN=C(N)N)C(=O)N[C@@H](C)C(=O)N1CCC[C@H]1C(=O)N1CCC[C@H]1C(=O)O` [RWLLKLGHHGRAPP]: the minimal inhibitory concentration (MIC) in test [25] is not below 64 µM; in [26], not below 128 µM; in test [27] it was not below 128 µM; in test [28], not below 128 µM.
